The values that follow come from patent publication US20240140944A1, “NOVEL NAPHTHYRIDINONE DERIVATIVE HAVING INHIBITORY ACTIVITY AGAINST ECTONUCLEOTIDE PYROPHOSPHATASE-PHOSPHODIESTERASE AND USE THEREOF” (TXINNO BIOSCIENCE INC., priority 2020, published 2024).

Structures are written as SMILES. Where a name gives a salt, the structure may show the parent alone.

The subject of assay [1] is interferon regulatory factor 3 (IRF3) in HCT116-Dual cells. Nature of the assay: HCT116-Dual Cell Luciferase Assay (ISG54 promoter, IRF3 activity). Particulars: ENPP1 inhibitor usually 10 μM plus cGAMP 10 μM, 48 hours, Lucia luciferase. It is filed as cell-based. The text has this:
HCT116-Dual™ cells express genes encoding luciferase secreted under the control of the interferon-stimulated gene 54 (ISG54) promoter along with five interferon-stimulated response elements. The HCT116-Dual™ cell line was used to measure and monitor the activity of interferon regulatory factor 3 (IRF3), which induces production of type I interferon and relates to downstream signaling, and Lucia secreted in the culture medium was used to generate luminescence in a luciferase reaction.
HCT116-Dual™ cells were cultured at 2×10^4 cells/well (93.4 μL) in a 96-well plate for one day in a DMEM medium containing 10% FBS and 25 mM HEPES (pH 7.2-7.5). The cells were treated with 3.3 μL of ENPP1 inhibitor (usually 10 μM) and then 3.3 μL of cGAMP (10 μM) to set the final volume to 100 μL (The final fraction of DMSO was 0.1%). The cells treated with ENPP1 inhibitor and cGAMP were cultured at 37° C. for 48 hours and 50 μL of Quanti-Luc reaction solution was added to 20 μL of cell culture medium to measure luciferase activity. The increase in interferon regulatory factor 3 (IRF3) by the compound compared to cGAMP was determined as fold.

Assay [2] has as its target T1, human recombinant ENPP1 enzymes (Homo sapiens, UniProt P22413).
T1 construct: purchased R & D systems
T1 sequence (P22413 1-925): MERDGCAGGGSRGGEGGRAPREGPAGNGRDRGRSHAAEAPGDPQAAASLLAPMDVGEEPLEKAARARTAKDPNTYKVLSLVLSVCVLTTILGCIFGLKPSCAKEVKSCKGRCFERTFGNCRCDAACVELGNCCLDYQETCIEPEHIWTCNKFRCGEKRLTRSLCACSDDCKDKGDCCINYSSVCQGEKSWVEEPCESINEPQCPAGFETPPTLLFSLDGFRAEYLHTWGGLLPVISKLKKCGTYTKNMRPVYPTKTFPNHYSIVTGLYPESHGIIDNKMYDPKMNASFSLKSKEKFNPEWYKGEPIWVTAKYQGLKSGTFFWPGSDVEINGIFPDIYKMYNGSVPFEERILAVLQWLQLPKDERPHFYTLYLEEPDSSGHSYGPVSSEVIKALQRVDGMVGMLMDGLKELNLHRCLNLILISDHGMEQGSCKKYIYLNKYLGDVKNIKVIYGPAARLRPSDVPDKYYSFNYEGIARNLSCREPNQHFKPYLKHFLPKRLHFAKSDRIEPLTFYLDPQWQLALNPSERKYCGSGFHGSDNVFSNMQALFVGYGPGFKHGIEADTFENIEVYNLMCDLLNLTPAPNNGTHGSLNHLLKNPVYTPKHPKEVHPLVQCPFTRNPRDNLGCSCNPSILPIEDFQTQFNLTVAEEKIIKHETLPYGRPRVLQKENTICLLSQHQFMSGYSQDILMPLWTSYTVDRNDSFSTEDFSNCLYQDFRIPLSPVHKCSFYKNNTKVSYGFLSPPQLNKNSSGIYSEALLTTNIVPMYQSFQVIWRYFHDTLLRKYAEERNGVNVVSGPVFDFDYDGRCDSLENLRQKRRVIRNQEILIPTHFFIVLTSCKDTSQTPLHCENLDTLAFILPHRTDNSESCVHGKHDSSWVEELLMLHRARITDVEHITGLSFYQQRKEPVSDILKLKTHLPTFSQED
Nature of the assay: ENPP1 Enzyme Assay with cGAMP Substrate (AMP-Glo). It is filed as biochemical. Particulars: human recombinant ENPP1 3 ng/reaction, cGAMP 5 μM, 37° C. 90 minutes, average of two or more tests; read-out: Enzymatic activity IC50. A digest of the protocol:
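Human recombinant ENPP1 (3 ng/reaction) preincubated 5–10 min at RT with inhibitor, then reacted with 5 µM cGAMP for 90 min at 37 °C in 50 mM Tris pH 8.5, 250 mM NaCl, 0.5 mM CaCl2, 1 µM ZnCl2, 1% DMSO. AMP produced read by AMP-Glo luminescence; IC50 from 3-parameter fit, averaged over ≥2 runs.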

As to `Cl.NS(=O)(=O)N(Cc1ccc(-c2ccnc3[nH]c(=O)ccc23)cc1F)C1CC1` [Example 54, N-cyclopropyl-N-(2-fluoro-4-(7-oxo-7,8-dihydro-1,8-naphthyridin-4-yl)benzyl)sulfamide hydrochloride], in assay [1], the “Cellular activity: increase in IRF3 by the compound compared to cGAMP, as fold” value (“Cellular activity: increase in IRF3 … as fold” below) is given as “B (1< Fold <2)”. The concentration for half-maximal inhibition (IC50) in assay [2] was less than 1000 nM.
Turning to `CN(Cc1ccc(-c2ccnc3[nH]c(=O)ccc23)c(F)c1)S(N)(=O)=O.Cl` [Example 55, N-(3-fluoro-4-(7-oxo-7,8-dihydro-1,8-naphthyridin-4-yl)benzyl)-N-methylsulfamide hydrochloride], in assay [1], the “Cellular activity: increase in IRF3 … as fold” value is reported as “B (1< Fold <2)”. The IC50 in assay [2] was less than 1000 nM.
In the same order, the values of `CCN(Cc1ccc(-c2ccnc3[nH]c(=O)ccc23)c(F)c1)S(N)(=O)=O.Cl` [Example 56, N-ethyl-N-(3-fluoro-4-(7-oxo-7,8-dihydro-1,8-naphthyridin-4-yl)benzyl)sulfamide hydrochloride] are “B (1< Fold <2)” and less than 1000 nM.
With `Cl.NS(=O)(=O)N(Cc1ccc(-c2ccnc3[nH]c(=O)ccc23)c(F)c1)C1CC1` [Example 58, N-cyclopropyl-N-(3-fluoro-4-(7-oxo-7,8-dihydro-1,8-naphthyridin-4-yl)benzyl)sulfamide hydrochloride], in assay [1], the “Cellular activity: increase in IRF3 … as fold” value is listed as “B (1< Fold <2)”. For the same molecule, the IC50 in assay [2] is less than 1000 nM.
In the same order, the values of `C[C@@H](c1ccc(-c2ccnc3[nH]c(=O)ccc23)cc1)N(C)S(N)(=O)=O` [Example 61, (S)-(N-methyl-N-(1-(4-(7-oxo-7,8-dihydro-1,8-naphthyridin-4-yl)phenyl)ethyl)sulfamide hydrochloride] are “B (1< Fold <2)” and less than 1000 nM.
For `NS(=O)(=O)N1Cc2ccc(-c3ccnc4[nH]c(=O)ccc34)cc2C1` [Example 64, 5-(7-oxo-7,8-dihydro-1,8-naphthyridin-4-yl)isoindolin-2-yl)sulfamide hydrochloride], in that order: “B (1< Fold <2)” and less than 1000 nM.
In the same order, the values of `NS(=O)(=O)N1CCc2ccc(-c3ccnc4[nH]c(=O)ccc34)cc2C1` [Example 65, 7-(7-oxo-7,8-dihydro-1,8-naphthyridin-4-yl)dihydroisoquinoline-2(1H)-sulfamide hydrochloride] are “B (1< Fold <2)” and less than 1000 nM.
`NCCc1ccc(F)c(Nc2ccnc3[nH]c(=O)ccc23)c1` [Example 79, 5-((5-(2-aminoethyl)-2-fluorophenyl)amino)-1,8-naphthyridin-2(1H)-one dihydrochloride]: in assay [1], the “Cellular activity: increase in IRF3 … as fold” value was “B (1< Fold <2)”. The IC50 in assay [2] lay within 1000 to 10000 nM.
For `CN(CCc1cccc(Nc2ccnc3[nH]c(=O)ccc23)c1)S(N)(=O)=O` [Example 93, N-methyl-N-(3-((7-oxo-7,8-dihydro-1,8-naphthyridin-4-yl)amino)phenethyl)sulfamide dihydrochloride], in that order: “B (1< Fold <2)” and less than 1000 nM.
In the same order, the values of `CCN(CCc1cccc(Nc2ccnc3[nH]c(=O)ccc23)c1)S(N)(=O)=O` [Example 94, N-ethyl-N-(3-((7-oxo-7,8-dihydro-1,8-naphthyridin-4-yl)amino)phenethyl)sulfamide dihydrochloride] are “B (1< Fold <2)” and less than 1000 nM.
With `NS(=O)(=O)Nc1ccc(Nc2ccnc3[nH]c(=O)ccc23)cc1` [Example 97, N-(4-((7-oxo-7,8-dihydro-1,8-naphthyridin-4-yl)amino)phenyl)sulfamide dihydrochloride], the “Cellular activity: increase in IRF3 … as fold” value in assay [1] was “B (1< Fold <2)”. Besides, in assay [2], the IC50 is less than 1000 nM.
In the same order, the values of `NS(=O)(=O)N1CCc2ccc(Nc3ccnc4[nH]c(=O)ccc34)cc2C1` [Example 102, 7-((7-oxo-7,8-dihydro-1,8-naphthyridin-4-yl)amino)-3,4-dihydroisoquinolin-2(1H)-yl)sulfamide dihydrochloride] are “A (>2)” and less than 1000 nM.
Turning to `NS(=O)(=O)NCc1cccc(-c2ccnc3c2CCC(=O)N3)c1` [Example 140, N-(3-(7-oxo-5,6,7,8-tetrahydro-1,8-naphthyridin-4-yl)benzyl)sulfamide], the “Cellular activity: increase in IRF3 … as fold” value in assay [1] was “B (1< Fold <2)”. Further, in assay [2], the 50% inhibitory concentration (IC50) is less than 1000 nM.
In the same order, the values of `NS(=O)(=O)NCc1ccc(-c2ccnc3c2CCC(=O)N3)cc1F` [Example 142, N-(2-fluoro-4-(7-oxo-5,6,7,8-tetrahydro-1,8-naphthyridin-4-yl)benzyl)sulfamide] are “B (1< Fold <2)” and less than 1000 nM.
For `Cl.NS(=O)(=O)N1CCc2ccc(-c3ccnc4c3CCC(=O)N4)cc2C1` [Example 145, (7-(7-oxo-5,6,7,8-tetrahydro-1,8-naphthyridin-4-yl)-3,4-dihydroisoguinolin-2(1H)-yl)sulfamide hydrochloride], in that order: “B (1< Fold <2)” and less than 1000 nM.

As a reminder, the IC50 is the concentration at which inhibition is half-maximal.
